Measured values as given in the supplement of paper PMC10307832.

Key:
Test in all cases: relative viability (nuclei count vs DMSO), 5 days (fraction); higher = more cells survive
NCI-H358 = tested on: NCI-H358
Procedure, shortened: (§1)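 Relative viability was taken as the ratio of nuclei in treated wells to nuclei in vehicle wells. Lung cancer cell lines in 1536-well plates received compounds by pin tool one day after seeding, either one drug alone or a fixed anchor-drug dose plus five library-drug doses (not always all listed) in √10 steps. Nuclei were counted on 4× images after 5 days of treatment, and values are medians of duplicate plates.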

NCI-H1915 = tested on: NCI-H1915
Procedure, shortened: as §1

COR-L 105 = tested on: COR-L 105
Procedure, shortened: as §1

NCI-H1793 = tested on: NCI-H1793
Procedure, shortened: as §1

NCI-H2170 = tested on: NCI-H2170
Procedure, shortened: as §1

SK-MES-1 = tested on: SK-MES-1
Procedure, shortened: as §1

NCI-H520 = tested on: NCI-H520
Procedure, shortened: as §1

A-427 = tested on: A-427
Procedure, shortened: as §1

NCI-H522 = tested on: NCI-H522
Procedure, shortened: as §1

NCI-H1944 = tested on: NCI-H1944
Procedure, shortened: as §1

NCI-H2087 = tested on: NCI-H2087
Procedure, shortened: as §1

NCI-H1975 = tested on: NCI-H1975
Procedure, shortened: as §1

HCC-827 = tested on: HCC-827
Procedure, shortened: as §1

HCC-44 = tested on: HCC-44
Procedure, shortened: as §1

LOU-NH91 = tested on: LOU-NH91
Procedure, shortened: as §1

NCI-H2023 = tested on: NCI-H2023
Procedure, shortened: as §1

LXF-289 = tested on: LXF-289
Procedure, shortened: as §1

NCI-H1792 = tested on: NCI-H1792
Procedure, shortened: as §1

SW 1573 = tested on: SW 1573
Procedure, shortened: as §1

LCLC-103H = tested on: LCLC-103H
Procedure, shortened: as §1

NCI-H1993 = tested on: NCI-H1993
Procedure, shortened: as §1

SW 900 = tested on: SW 900
Procedure, shortened: as §1

H3255 = tested on: H3255
Procedure, shortened: as §1

Cc1csc(=NC2CCCCC2)n1/N=C/c1ccc(O)c(O)c1O [MIM1] + Nc1ncn([C@H]2C[C@H](O)[C@@H](CO)O2)c(=O)n1 [Decitabine] (partner 2 µM)
relative viability (NCI-H358; first compound 0.2 µM): 0.212
relative viability (NCI-H358; first compound 0.6325 µM): 0.224
relative viability (NCI-H358; first compound 2 µM): 0.216
relative viability (NCI-H358; first compound 6.325 µM): 0.148
relative viability (NCI-H358; first compound 20 µM): 0.119
relative viability (NCI-H1915; first compound 0.2 µM): 0.263
relative viability (NCI-H1915; first compound 0.6325 µM): 0.273
relative viability (NCI-H1915; first compound 2 µM): 0.256
relative viability (NCI-H1915; first compound 6.325 µM): 0.232
relative viability (NCI-H1915; first compound 20 µM): 0.245
relative viability (COR-L 105; first compound 0.2 µM): 0.592
relative viability (COR-L 105; first compound 0.6325 µM): 0.661
relative viability (COR-L 105; first compound 2 µM): 0.72
relative viability (COR-L 105; first compound 6.325 µM): 0.571
relative viability (COR-L 105; first compound 20 µM): 0.571
relative viability (NCI-H1793; first compound 0.2 µM): 0.507
relative viability (NCI-H1793; first compound 2 µM): 0.518
relative viability (NCI-H1793; first compound 6.325 µM): 0.479
relative viability (NCI-H1793; first compound 20 µM): 0.495
relative viability (NCI-H2170; first compound 0.2 µM): 0.448
relative viability (NCI-H2170; first compound 0.6325 µM): 0.455
relative viability (NCI-H2170; first compound 2 µM): 0.494
relative viability (NCI-H2170; first compound 6.325 µM): 0.401
relative viability (NCI-H2170; first compound 20 µM): 0.27
relative viability (SK-MES-1; first compound 0.2 µM): 0.454
relative viability (SK-MES-1; first compound 0.6325 µM): 0.424
relative viability (SK-MES-1; first compound 2 µM): 0.376
relative viability (SK-MES-1; first compound 6.325 µM): 0.272
relative viability (SK-MES-1; first compound 20 µM): 0.21
relative viability (NCI-H520; first compound 0.2 µM): 0.574
relative viability (NCI-H520; first compound 0.6325 µM): 0.485
relative viability (NCI-H520; first compound 2 µM): 0.526
relative viability (NCI-H520; first compound 6.325 µM): 0.43
relative viability (NCI-H520; first compound 20 µM): 0.284
relative viability (A-427; first compound 0.2 µM): 0.583
relative viability (A-427; first compound 0.6325 µM): 0.578
relative viability (A-427; first compound 2 µM): 0.572
relative viability (A-427; first compound 6.325 µM): 0.541
relative viability (A-427; first compound 20 µM): 0.308
relative viability (NCI-H522; first compound 0.2 µM): 0.625
relative viability (NCI-H522; first compound 0.6325 µM): 0.632
relative viability (NCI-H522; first compound 2 µM): 0.711
relative viability (NCI-H522; first compound 6.325 µM): 0.691
relative viability (NCI-H522; first compound 20 µM): 0.63
relative viability (NCI-H1944; first compound 0.2 µM): 0.399
relative viability (NCI-H1944; first compound 0.6325 µM): 0.467
relative viability (NCI-H1944; first compound 2 µM): 0.403
relative viability (NCI-H1944; first compound 6.325 µM): 0.412
relative viability (NCI-H1944; first compound 20 µM): 0.355
relative viability (NCI-H2087; first compound 0.2 µM): 0.286
relative viability (NCI-H2087; first compound 0.6325 µM): 0.273
relative viability (NCI-H2087; first compound 2 µM): 0.231
relative viability (NCI-H2087; first compound 6.325 µM): 0.327
relative viability (NCI-H2087; first compound 20 µM): 0.246
relative viability (NCI-H1975; first compound 0.2 µM): 0.384
relative viability (NCI-H1975; first compound 0.6325 µM): 0.385
relative viability (NCI-H1975; first compound 2 µM): 0.39
relative viability (NCI-H1975; first compound 6.325 µM): 0.216
relative viability (NCI-H1975; first compound 20 µM): 0.137
relative viability (HCC-827; first compound 0.2 µM): 0.331
relative viability (HCC-827; first compound 0.6325 µM): 0.334
relative viability (HCC-827; first compound 2 µM): 0.305
relative viability (HCC-827; first compound 6.325 µM): 0.292
relative viability (HCC-827; first compound 20 µM): 0.175
relative viability (HCC-44; first compound 0.2 µM): 0.905
relative viability (HCC-44; first compound 0.6325 µM): 0.85
relative viability (HCC-44; first compound 2 µM): 0.866
relative viability (HCC-44; first compound 6.325 µM): 0.479
relative viability (HCC-44; first compound 20 µM): 0.405
relative viability (LOU-NH91; first compound 0.2 µM): 0.787
relative viability (LOU-NH91; first compound 0.6325 µM): 0.788
relative viability (LOU-NH91; first compound 2 µM): 0.644
relative viability (LOU-NH91; first compound 6.325 µM): 0.742
relative viability (LOU-NH91; first compound 20 µM): 0.458
relative viability (NCI-H2023; first compound 0.2 µM): 0.24
relative viability (NCI-H2023; first compound 0.6325 µM): 0.215
relative viability (NCI-H2023; first compound 2 µM): 0.212
relative viability (NCI-H2023; first compound 6.325 µM): 0.157
relative viability (NCI-H2023; first compound 20 µM): 0.0821
relative viability (LXF-289; first compound 0.2 µM): 0.399
relative viability (LXF-289; first compound 0.6325 µM): 0.368
relative viability (LXF-289; first compound 2 µM): 0.394
relative viability (LXF-289; first compound 6.325 µM): 0.328
relative viability (LXF-289; first compound 20 µM): 0.253
relative viability (NCI-H1792; first compound 0.2 µM): 0.574
relative viability (NCI-H1792; first compound 0.6325 µM): 0.497
relative viability (NCI-H1792; first compound 2 µM): 0.611
relative viability (NCI-H1792; first compound 6.325 µM): 0.439
relative viability (NCI-H1792; first compound 20 µM): 0.411
relative viability (SW 1573; first compound 0.2 µM): 0.592
relative viability (SW 1573; first compound 0.6325 µM): 0.516
relative viability (SW 1573; first compound 2 µM): 0.429
relative viability (SW 1573; first compound 6.325 µM): 0.306
relative viability (SW 1573; first compound 20 µM): 0.166
relative viability (LCLC-103H; first compound 0.2 µM): 0.773
relative viability (LCLC-103H; first compound 0.6325 µM): 0.778
relative viability (LCLC-103H; first compound 2 µM): 0.808
relative viability (LCLC-103H; first compound 6.325 µM): 0.666
relative viability (LCLC-103H; first compound 20 µM): 0.367
relative viability (NCI-H1993; first compound 0.2 µM): 0.534
relative viability (NCI-H1993; first compound 0.6325 µM): 0.531
relative viability (NCI-H1993; first compound 2 µM): 0.517
relative viability (NCI-H1993; first compound 6.325 µM): 0.483
relative viability (NCI-H1993; first compound 20 µM): 0.3
relative viability (SW 900; first compound 0.2 µM): 0.345
relative viability (SW 900; first compound 0.6325 µM): 0.482
relative viability (SW 900; first compound 2 µM): 0.486
relative viability (SW 900; first compound 6.325 µM): 0.31
relative viability (SW 900; first compound 20 µM): 0.206
relative viability (H3255; first compound 0.2 µM): 0.562
relative viability (H3255; first compound 0.6325 µM): 0.657
relative viability (H3255; first compound 2 µM): 0.527
relative viability (H3255; first compound 6.325 µM): 0.486
relative viability (H3255; first compound 20 µM): 0.242
